Source: the supplement of paper PMC4862054

Tested on: CAL-120
Assay: drug sensitivity score (DSS), CellTiter-Glo (DSS (AUC-based score)); higher = stronger drug effect (viability inhibition or cytotoxicity); extreme values may be limits of the assay
Settings: incubation time: 72 h
How it was run: (§1)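 For 72 h, breast cancer cell lines seeded at 20 µl suspension per well in 384-well plates were incubated with compound at 5 concentrations in 10-fold steps spanning a 10,000-fold range that differed by compound. The first reading was CellTox Green fluorescence at 485/520 nm, and the second was CellTiter-Glo luminescence after 10 min at room temperature. Both were normalised per plate to 0.1 % DMSO and a positive kill control, and the drug sensitivity score was obtained from the area under the fitted dose-response curve.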

| SMILES | drug sensitivity score |
| --- | --- |
| CC(=O)Nc1cccc(-n2c(=O)n(C3CC3)c(=O)c3c(Nc4ccc(I)cc4F)n(C)c(=O)c(C)c32)c1 [Trametinib] | 5.16 |
| C=CCc1cccc(/C=N/NC(=O)CN2CCN(Cc3ccccc3)CC2)c1O [PAC-1] | 3.26 |
| Nc1nc(F)nc2c1ncn2[C@@H]1O[C@H](CO)[C@@H](O)[C@@H]1O [Fludarabine] | 0.352 |
| Nc1ncn([C@H]2C[C@H](O)[C@@H](CO)O2)c(=O)n1 [Decitabine] | 0.811 |
| CC[C@@H]1C(=O)N(C)c2cnc(Nc3ccc(C(=O)NC4CCN(C)CC4)cc3OC)nc2N1C1CCCC1 [BI 2536] | 11.2 |
| CC[C@H](C)C(=O)O[C@H]1C[C@H](O)C=C2C=C[C@H](C)[C@H](CC[C@@H](O)C[C@@H](O)CC(=O)O)[C@H]21 [Pravastatin] | 2.92 |
| O=C(O)C(=O)O.[NH-][C@@H]1CCCC[C@H]1[NH-].[Pt+2] [Oxaliplatin] | 0 |
| CCN(CC)CCCC(C)Nc1c2ccc(Cl)cc2nc2ccc(OC)cc12 (stereo not given) [Mepacrine] | 0 |
| Cc1ccc(-c2cc(C(F)(F)F)nn2-c2ccc(S(N)(=O)=O)cc2)cc1 [Celecoxib] | 0 |
| COc1cc2c(NC3CCN(C(C)C)CC3)nc(C3CCCCC3)nc2cc1OCCCN1CCCC1 [UNC0638] | 6.05 |
| COc1cc([C@@H]2c3cc4c(cc3[C@@H](O[C@@H]3O[C@@H]5CO[C@@H](c6cccs6)O[C@H]5[C@H](O)[C@H]3O)[C@H]3COC(=O)[C@H]23)OCO4)cc(OC)c1O [Teniposide] | 6.56 |
| CCc1cncnc1N1CCN(Cc2nc3ccc(C(F)(F)F)cc3[nH]2)CC1 | 0.0627 |
| COc1cc2nccc(Oc3ccc(NC(=O)Nc4cc(C)on4)c(Cl)c3)c2cc1OC [Tivozanib] | 0 |

Tested on: CAL-148
Assay: as above
Settings: incubation time: 72 h
How it was run: as §1

| SMILES | drug sensitivity score |
| --- | --- |
| CC(=O)Nc1cccc(-n2c(=O)n(C3CC3)c(=O)c3c(Nc4ccc(I)cc4F)n(C)c(=O)c(C)c32)c1 [Trametinib] | 0 |
| C=CCc1cccc(/C=N/NC(=O)CN2CCN(Cc3ccccc3)CC2)c1O [PAC-1] | 2.16 |
| Nc1nc(F)nc2c1ncn2[C@@H]1O[C@H](CO)[C@@H](O)[C@@H]1O [Fludarabine] | 0 |
| Nc1ncn([C@H]2C[C@H](O)[C@@H](CO)O2)c(=O)n1 [Decitabine] | 0 |
| CC[C@@H]1C(=O)N(C)c2cnc(Nc3ccc(C(=O)NC4CCN(C)CC4)cc3OC)nc2N1C1CCCC1 [BI 2536] | 5.51 |
| CC[C@H](C)C(=O)O[C@H]1C[C@H](O)C=C2C=C[C@H](C)[C@H](CC[C@@H](O)C[C@@H](O)CC(=O)O)[C@H]21 [Pravastatin] | 3.75 |
| O=C(O)C(=O)O.[NH-][C@@H]1CCCC[C@H]1[NH-].[Pt+2] [Oxaliplatin] | 0 |
| CCN(CC)CCCC(C)Nc1c2ccc(Cl)cc2nc2ccc(OC)cc12 (stereo not given) [Mepacrine] | 0 |
| Cc1ccc(-c2cc(C(F)(F)F)nn2-c2ccc(S(N)(=O)=O)cc2)cc1 [Celecoxib] | 0 |
| COc1cc2c(NC3CCN(C(C)C)CC3)nc(C3CCCCC3)nc2cc1OCCCN1CCCC1 [UNC0638] | 5.21 |
| COc1cc([C@@H]2c3cc4c(cc3[C@@H](O[C@@H]3O[C@@H]5CO[C@@H](c6cccs6)O[C@H]5[C@H](O)[C@H]3O)[C@H]3COC(=O)[C@H]23)OCO4)cc(OC)c1O [Teniposide] | 15.7 |
| CCc1cncnc1N1CCN(Cc2nc3ccc(C(F)(F)F)cc3[nH]2)CC1 | 0 |
| COc1cc2nccc(Oc3ccc(NC(=O)Nc4cc(C)on4)c(Cl)c3)c2cc1OC [Tivozanib] | 0 |

Tested on: CAL-85-1
Assay: as above
Settings: incubation time: 72 h
How it was run: as §1

| SMILES | drug sensitivity score |
| --- | --- |
| CC(=O)Nc1cccc(-n2c(=O)n(C3CC3)c(=O)c3c(Nc4ccc(I)cc4F)n(C)c(=O)c(C)c32)c1 [Trametinib] | 6.58 |
| C=CCc1cccc(/C=N/NC(=O)CN2CCN(Cc3ccccc3)CC2)c1O [PAC-1] | 3 |
| Nc1nc(F)nc2c1ncn2[C@@H]1O[C@H](CO)[C@@H](O)[C@@H]1O [Fludarabine] | 0.486 |
| Nc1ncn([C@H]2C[C@H](O)[C@@H](CO)O2)c(=O)n1 [Decitabine] | 0 |
| CC[C@@H]1C(=O)N(C)c2cnc(Nc3ccc(C(=O)NC4CCN(C)CC4)cc3OC)nc2N1C1CCCC1 [BI 2536] | 14.1 |
| CC[C@H](C)C(=O)O[C@H]1C[C@H](O)C=C2C=C[C@H](C)[C@H](CC[C@@H](O)C[C@@H](O)CC(=O)O)[C@H]21 [Pravastatin] | 1.96 |
| O=C(O)C(=O)O.[NH-][C@@H]1CCCC[C@H]1[NH-].[Pt+2] [Oxaliplatin] | 0 |
| CCN(CC)CCCC(C)Nc1c2ccc(Cl)cc2nc2ccc(OC)cc12 (stereo not given) [Mepacrine] | 0 |
| Cc1ccc(-c2cc(C(F)(F)F)nn2-c2ccc(S(N)(=O)=O)cc2)cc1 [Celecoxib] | 0 |
| COc1cc2c(NC3CCN(C(C)C)CC3)nc(C3CCCCC3)nc2cc1OCCCN1CCCC1 [UNC0638] | 5.07 |
| COc1cc([C@@H]2c3cc4c(cc3[C@@H](O[C@@H]3O[C@@H]5CO[C@@H](c6cccs6)O[C@H]5[C@H](O)[C@H]3O)[C@H]3COC(=O)[C@H]23)OCO4)cc(OC)c1O [Teniposide] | 10.3 |
| CCc1cncnc1N1CCN(Cc2nc3ccc(C(F)(F)F)cc3[nH]2)CC1 | 0 |
| COc1cc2nccc(Oc3ccc(NC(=O)Nc4cc(C)on4)c(Cl)c3)c2cc1OC [Tivozanib] | 0 |

Tested on: DU-4475
Assay: as above
Settings: incubation time: 72 h
How it was run: as §1

| SMILES | drug sensitivity score |
| --- | --- |
| CC(=O)Nc1cccc(-n2c(=O)n(C3CC3)c(=O)c3c(Nc4ccc(I)cc4F)n(C)c(=O)c(C)c32)c1 [Trametinib] | 27.2 |
| C=CCc1cccc(/C=N/NC(=O)CN2CCN(Cc3ccccc3)CC2)c1O [PAC-1] | 4.02 |
| Nc1nc(F)nc2c1ncn2[C@@H]1O[C@H](CO)[C@@H](O)[C@@H]1O [Fludarabine] | 0 |
| Nc1ncn([C@H]2C[C@H](O)[C@@H](CO)O2)c(=O)n1 [Decitabine] | 0 |
| CC[C@@H]1C(=O)N(C)c2cnc(Nc3ccc(C(=O)NC4CCN(C)CC4)cc3OC)nc2N1C1CCCC1 [BI 2536] | 7.02 |
| CC[C@H](C)C(=O)O[C@H]1C[C@H](O)C=C2C=C[C@H](C)[C@H](CC[C@@H](O)C[C@@H](O)CC(=O)O)[C@H]21 [Pravastatin] | 4.02 |
| O=C(O)C(=O)O.[NH-][C@@H]1CCCC[C@H]1[NH-].[Pt+2] [Oxaliplatin] | 0 |
| CCN(CC)CCCC(C)Nc1c2ccc(Cl)cc2nc2ccc(OC)cc12 (stereo not given) [Mepacrine] | 0 |
| Cc1ccc(-c2cc(C(F)(F)F)nn2-c2ccc(S(N)(=O)=O)cc2)cc1 [Celecoxib] | 0 |
| COc1cc2c(NC3CCN(C(C)C)CC3)nc(C3CCCCC3)nc2cc1OCCCN1CCCC1 [UNC0638] | 0.314 |
| COc1cc([C@@H]2c3cc4c(cc3[C@@H](O[C@@H]3O[C@@H]5CO[C@@H](c6cccs6)O[C@H]5[C@H](O)[C@H]3O)[C@H]3COC(=O)[C@H]23)OCO4)cc(OC)c1O [Teniposide] | 19.4 |
| CCc1cncnc1N1CCN(Cc2nc3ccc(C(F)(F)F)cc3[nH]2)CC1 | 0 |
| COc1cc2nccc(Oc3ccc(NC(=O)Nc4cc(C)on4)c(Cl)c3)c2cc1OC [Tivozanib] | 0 |

Tested on: HCC1143
Assay: as above
Settings: incubation time: 72 h
How it was run: as §1

| SMILES | drug sensitivity score |
| --- | --- |
| CC(=O)Nc1cccc(-n2c(=O)n(C3CC3)c(=O)c3c(Nc4ccc(I)cc4F)n(C)c(=O)c(C)c32)c1 [Trametinib] | 0 |
| C=CCc1cccc(/C=N/NC(=O)CN2CCN(Cc3ccccc3)CC2)c1O [PAC-1] | 1.38 |
| Nc1nc(F)nc2c1ncn2[C@@H]1O[C@H](CO)[C@@H](O)[C@@H]1O [Fludarabine] | 0 |
| Nc1ncn([C@H]2C[C@H](O)[C@@H](CO)O2)c(=O)n1 [Decitabine] | 0 |
| CC[C@@H]1C(=O)N(C)c2cnc(Nc3ccc(C(=O)NC4CCN(C)CC4)cc3OC)nc2N1C1CCCC1 [BI 2536] | 15.7 |
| CC[C@H](C)C(=O)O[C@H]1C[C@H](O)C=C2C=C[C@H](C)[C@H](CC[C@@H](O)C[C@@H](O)CC(=O)O)[C@H]21 [Pravastatin] | 2.94 |
| O=C(O)C(=O)O.[NH-][C@@H]1CCCC[C@H]1[NH-].[Pt+2] [Oxaliplatin] | 0 |
| CCN(CC)CCCC(C)Nc1c2ccc(Cl)cc2nc2ccc(OC)cc12 (stereo not given) [Mepacrine] | 0 |
| Cc1ccc(-c2cc(C(F)(F)F)nn2-c2ccc(S(N)(=O)=O)cc2)cc1 [Celecoxib] | 0 |
| COc1cc2c(NC3CCN(C(C)C)CC3)nc(C3CCCCC3)nc2cc1OCCCN1CCCC1 [UNC0638] | 3.85 |
| COc1cc([C@@H]2c3cc4c(cc3[C@@H](O[C@@H]3O[C@@H]5CO[C@@H](c6cccs6)O[C@H]5[C@H](O)[C@H]3O)[C@H]3COC(=O)[C@H]23)OCO4)cc(OC)c1O [Teniposide] | 12 |
| CCc1cncnc1N1CCN(Cc2nc3ccc(C(F)(F)F)cc3[nH]2)CC1 | 0 |
| COc1cc2nccc(Oc3ccc(NC(=O)Nc4cc(C)on4)c(Cl)c3)c2cc1OC [Tivozanib] | 0 |

Tested on: HCC1599
Assay: as above
Settings: incubation time: 72 h
How it was run: as §1

| SMILES | drug sensitivity score |
| --- | --- |
| CC(=O)Nc1cccc(-n2c(=O)n(C3CC3)c(=O)c3c(Nc4ccc(I)cc4F)n(C)c(=O)c(C)c32)c1 [Trametinib] | 0 |
| C=CCc1cccc(/C=N/NC(=O)CN2CCN(Cc3ccccc3)CC2)c1O [PAC-1] | 1.71 |
| Nc1nc(F)nc2c1ncn2[C@@H]1O[C@H](CO)[C@@H](O)[C@@H]1O [Fludarabine] | 0 |
| Nc1ncn([C@H]2C[C@H](O)[C@@H](CO)O2)c(=O)n1 [Decitabine] | 0 |
| CC[C@@H]1C(=O)N(C)c2cnc(Nc3ccc(C(=O)NC4CCN(C)CC4)cc3OC)nc2N1C1CCCC1 [BI 2536] | 12.4 |
| CC[C@H](C)C(=O)O[C@H]1C[C@H](O)C=C2C=C[C@H](C)[C@H](CC[C@@H](O)C[C@@H](O)CC(=O)O)[C@H]21 [Pravastatin] | 6.85 |
| O=C(O)C(=O)O.[NH-][C@@H]1CCCC[C@H]1[NH-].[Pt+2] [Oxaliplatin] | 0 |
| CCN(CC)CCCC(C)Nc1c2ccc(Cl)cc2nc2ccc(OC)cc12 (stereo not given) [Mepacrine] | 0 |
| Cc1ccc(-c2cc(C(F)(F)F)nn2-c2ccc(S(N)(=O)=O)cc2)cc1 [Celecoxib] | 0 |
| COc1cc2c(NC3CCN(C(C)C)CC3)nc(C3CCCCC3)nc2cc1OCCCN1CCCC1 [UNC0638] | 2.99 |
| COc1cc([C@@H]2c3cc4c(cc3[C@@H](O[C@@H]3O[C@@H]5CO[C@@H](c6cccs6)O[C@H]5[C@H](O)[C@H]3O)[C@H]3COC(=O)[C@H]23)OCO4)cc(OC)c1O [Teniposide] | 19 |
| CCc1cncnc1N1CCN(Cc2nc3ccc(C(F)(F)F)cc3[nH]2)CC1 | 0 |
| COc1cc2nccc(Oc3ccc(NC(=O)Nc4cc(C)on4)c(Cl)c3)c2cc1OC [Tivozanib] | 0 |

Tested on: Hs578T
Assay: as above
Settings: incubation time: 72 h
How it was run: as §1

| SMILES | drug sensitivity score |
| --- | --- |
| CC(=O)Nc1cccc(-n2c(=O)n(C3CC3)c(=O)c3c(Nc4ccc(I)cc4F)n(C)c(=O)c(C)c32)c1 [Trametinib] | 2.9 |
| C=CCc1cccc(/C=N/NC(=O)CN2CCN(Cc3ccccc3)CC2)c1O [PAC-1] | 0 |
| Nc1nc(F)nc2c1ncn2[C@@H]1O[C@H](CO)[C@@H](O)[C@@H]1O [Fludarabine] | 0 |
| Nc1ncn([C@H]2C[C@H](O)[C@@H](CO)O2)c(=O)n1 [Decitabine] | 0.0828 |
| CC[C@@H]1C(=O)N(C)c2cnc(Nc3ccc(C(=O)NC4CCN(C)CC4)cc3OC)nc2N1C1CCCC1 [BI 2536] | 13.3 |
| CC[C@H](C)C(=O)O[C@H]1C[C@H](O)C=C2C=C[C@H](C)[C@H](CC[C@@H](O)C[C@@H](O)CC(=O)O)[C@H]21 [Pravastatin] | 0 |
| O=C(O)C(=O)O.[NH-][C@@H]1CCCC[C@H]1[NH-].[Pt+2] [Oxaliplatin] | 0 |
